Results published in patent publication US8637670B2, “Imidazo [4,5-C]quinoline derivatives and their use in the treatment of tumors and/or inflammation” (Piramal Enterprises Limited, priority 2009, dated 2014).

Legend:
[1] = target: T1, PI3Kα kinase (Homo sapiens, UniProt P42336); assay: PI3Kα assay (32P incorporation into phosphatidylinositol, TLC densitometry); type: biochemical; details: At 100 nM
T1 construct: purchased Millipore, USA
Procedure: The assay was designed as in the reference, Cell, 2006, 125, 733-47 (Supplemental Data), the disclosure of which is incorporated by reference for the teaching of the assay.
The kinase reaction was carried out in a 25 μL volume in a 1.5 mL microcentrifuge tube. The reaction mixture consisted of kinase buffer (10 mM Hepes, pH 7.5, 50 mM MgCl2), 20 ng PI3Kα kinase (Millipore, USA), 12.5 μg phosphatidylinositol (PI), 10 μM ATP and 1 μCi ^32γ P dATP. Compounds of Example 1-40 were added at concentrations (stock solution was prepared in DMSO and subsequent dilutions were made in kinase buffer) as mentioned in the table. The reaction mixture was incubated at 30° C. for 20 minutes and was terminated by adding 1:1 mixture of MeOH and chloroform. The tube contents were mixed on a vortex mixer and centrifuged at 10000 rpm for 2 minutes. 10 μL of the organic (lower) phase was spotted on to a TLC plate (silica, mobile phase: n-propanol and 2 M glacial acetic acid in 65:35 ratio). The plates were dried and exposed to an X-ray film. The bands appearing as a result of ^32γ P incorporation in PI were quantitated using the QuantityOne (BioRad, USA) densitometry program. PI-103 (Calbiochem, USA) was used as a standard.

[2] = system: PI3K α; assay: PI3K activity assay, cell-based ELISA of AKT (Ser 473) phosphorylation; details: Homo sapiens, Ovarian cell line A2780, 20% FCS stimulation
Procedure: The assay was designed as in the reference, Biochemical Journal, 2000, 350, 717-722, the disclosure of which is incorporated by reference for the teaching of the assay.
Seed cells (Ovarian cell line A2780, ATCC) were plated in a 96 well microtitre plate at a density of 50,000 cells/cm^2 in appropriate complete cell culture medium. The cells were allowed to adhere for 18-24 hours. The cells were allowed to starve for 24 hours. The cells were pretreated (in triplicates) with the compounds of Example 1-40 (stock solution was prepared in DMSO and subsequent dilutions were made in kinase buffer) at a concentration of 10 μM for one hour. Then the cells were stimulated with 20% FCS for 30 minutes. A typical assay would consist of a set of unstimulated cells, a set of stimulated cells and a set of cells treated with compounds of Example 1-40 and a set of cells treated with the stimulator. The medium was discarded. The cells were fixed with 100 μL of 3.7% formaldehyde for 15 minutes. The formaldehyde was discarded by inverting the plate and tapping it on a thick tissue paper layer to remove traces. The cells were washed and permeabilized with 200 μL PBS+Triton-X 100 solution (hereafter referred to as PBS-Triton, containing 0.1% triton-X 100 in 1×PBS) three times, incubating the cells each time for 5 minutes. 100 μL blocking solution (10% FCS in PBS-Triton) was added and incubated for 1 hour at 25° C. The blocking solution was discarded and cells were incubated with the primary antibody in PBS-Triton at a dilution of 1:500 for 1 hour at RT (25° C.). [The primary antibody is Phospho-AKT (Ser 473); Cell Signaling; USA, Cat. No. 9271]. The primary antibody solution was discarded and the cells were washed 3 times with PBS-Triton solution and incubated with the HRP-conjugated secondary antibody in PBS-Triton at a dilution of 1:500 for 1 hour at RT (25° C.). The cells were washed 3 times with PBS-Triton followed by two washes with PBS (to remove traces of triton-X 100). The OPD (o-phenylene diamine dihydrochloride) substrate was prepared for detection of the signal by dissolving one tablet set (two tablets) of SigmaFast OPD (Sigma, USA, Cat No. P9187) in 20 mL distilled water. It should be kept protected from light. 100 μL OPD solutions was added to the wells and the plate was incubated in the dark for 3-5 minutes (depending upon the development of the color). The reaction was stopped by adding 50 μL 2 NH2SO4. The absorbance was measured at 490 nm. The values were expressed in the treated samples, in terms of percentage or fold decrease in AKT phosphorylation with respect to the induced sample. PI-103 (Calbiochem, USA) was used as a standard.

[3] = system: H460; assay: Cytotoxicity, propidium iodide assay, H460; type: cell-based; details: Homo sapiens, NCI-H460; Lung, H460, 48 hours treatment; read-out: IC50, C1b (H460)
Procedure: (§1) The assay was designed as in the reference, Anticancer Drugs, 2002, 13, 1-8, the disclosure of which is incorporated by reference for the teaching of the assay.
(§2) Cells from cell lines as mentioned in the table given below were seeded at a density of 3000 cells/well in a white opaque 96-well plate. Following incubation at 37° C./5% CO2 for a period of 18-24 hours, the cells were treated with various concentrations (stock solution was prepared in DMSO and subsequent dilutions were made in media as per ATCC guidelines) of the compounds of Example 1-40 was for a period of 48 hours. At the end of treatment, the spent culture medium was discarded, the cells were washed with 1×PBS and 200 μl of 7 μg/ml propidium iodide was added to each well. The plates were frozen at −70° C. for at least 24 hours. For analysis, the plates were brought to RT, allowed to thaw and were read in PoleStar fluorimeter with the fluorescence setting. The percentage of viable cells in the non-treated set of wells was considered to be 100 and the percentage viability following treatment was calculated accordingly. IC50 values were calculated from graphs plotted using these percentages. Table 4 depicts the IC50 values of compounds of Example 1-40 in individual cell lines.
(§3) The abbreviations for the Cell Lines as used in Table 4 are: […]

[4] = system: PC3; assay: Cytotoxicity, propidium iodide assay, PC3; type: cell-based; details: Homo sapiens, PC-3; Prostate, PC3, 48 hours treatment; read-out: IC50, C2a (PC3)
Procedure: as §1, §2, §3

[5] = system: A2780; assay: Cytotoxicity, propidium iodide assay, A2780; type: cell-based; details: Homo sapiens; Ovarian, A2780, 48 hours treatment; read-out: IC50, C3a (A2780)
Procedure: as §1, §2, §3

[6] = system: OVCAR 3; assay: Cytotoxicity, propidium iodide assay, OVCAR 3; type: cell-based; details: Homo sapiens; Ovarian, OVCAR 3, 48 hours treatment; read-out: IC50, C3b (OVCAR 3)
Procedure: as §1, §2, §3

[7] = system: U 373; assay: Cytotoxicity, propidium iodide assay, U 373; type: cell-based; details: Homo sapiens, U373 MG; Glioblastoma, U 373, 48 hours treatment; read-out: IC50, C7a (U 373)
Procedure: as §1, §2, §3

[8] = system: IL-6; assay: Human monocyte assay, LPS-stimulated IL-6 (ELISA); type: cell-based; details: human monocytes, 1 μg/ml LPS, 5 hours
Procedure: (§4) The assay was designed as in the reference, Physiol. Res., 2003, 52, 593-598, the disclosure of which is incorporated by reference for the teaching of the assay.
(§5) Peripheral blood mononuclear cells (hPBMC) were harvested from human blood and suspended in RPMI 1640 culture medium containing 10% FCS, 100 U/mL penicillin and […] streptomycin (assay medium). Monocytes in the hPBMCs were counted using a Coulter Counter following which the cells were resuspended at 2×10^5 monocytes/mL. A cell suspension containing 2×10^4 monocytes was aliquoted per well of a 96-well plate. Subsequently, the hPBMCs were incubated for 4-5 hours at 37° C. under 5% CO2 (During the incubation, the monocytes adhered to the bottom of 96-well plastic culture plate). Following the incubation, the non-adherent lymphocytes were washed with assay medium and the adherent monocytes re-fed with assay medium. After a 48-hour incubation period (37° C., 5% CO2), monocytes were pretreated with various concentrations of compounds of Example 1-40 (prepared in DMSO) or vehicle (0.5% DMSO) for 30 minutes and stimulated with 1 μg/ml LPS (Escherchia coli 0111:B4, Sigma Chemical Co., St. Louis, Mo.). The incubation was continued for 5 hours at 37° C., 5% CO2. Supernatants were harvested, assayed for IL-6 and TNF-α by ELISA as described by the manufacturer (BD Biosciences, USA). Dexamethasone (10 μM) was used as standard for this assay. The 50% inhibitory concentration (IC50) values were calculated by a nonlinear regression method. In all experiments, a parallel plate was run to ascertain the toxicity of compounds of Example 1-40. The toxicity was determined using the MTS assay as described in Am. J. Physiol. Cell Physiol., 2003, 285, C813-C822.

[9] = system: TNF-α; assay: Human monocyte assay, LPS-stimulated TNF-α (ELISA); type: cell-based; details: human monocytes, 1 μg/ml LPS, 5 hours, read-out: TNFα (IC50)
Procedure: as §4, §5

[10] = system: A549; assay: Cytotoxicity, propidium iodide assay, A549; type: cell-based; details: Homo sapiens; Lung, A549, 48 hours treatment; read-out: IC50, C1a (A549)
Procedure: as §1, §2, §3

[11] = system: HCT116; assay: Cytotoxicity, propidium iodide assay, HCT116; type: cell-based; details: Homo sapiens, HCT-116; Colon, HCT116, 48 hours treatment; read-out: IC50, C4a (HCT116)
Procedure: as §1, §2, §3

[12] = system: AsPC 1; assay: Cytotoxicity, propidium iodide assay, AsPC 1; type: cell-based; details: Homo sapiens, ASPC1; Pancreatic, AsPC 1, 48 hours treatment; read-out: IC50, C5b (AsPC 1)
Procedure: as §1, §2, §3

[13] = system: BxPC3; assay: Cytotoxicity, propidium iodide assay, BxPC3; type: cell-based; details: Homo sapiens, BXPC-3; Pancreatic, BxPC3, 48 hours treatment; read-out: IC50, C5c (BxPC3)
Procedure: as §1, §2, §3

[14] = system: MDA MB 468; assay: Cytotoxicity, propidium iodide assay, MDA MB 468; type: cell-based; details: Homo sapiens; Breast, MDA MB 468, 48 hours treatment; read-out: IC50, C6b (MDA MB 468)
Procedure: as §1, §2, §3

[15] = system: BT 549; assay: Cytotoxicity, propidium iodide assay, BT 549; type: cell-based; details: Homo sapiens; Breast, BT 549, 48 hours treatment; read-out: IC50, C6d (BT 549)
Procedure: as §1, §2, §3

T1 sequence (P42336 whole entry): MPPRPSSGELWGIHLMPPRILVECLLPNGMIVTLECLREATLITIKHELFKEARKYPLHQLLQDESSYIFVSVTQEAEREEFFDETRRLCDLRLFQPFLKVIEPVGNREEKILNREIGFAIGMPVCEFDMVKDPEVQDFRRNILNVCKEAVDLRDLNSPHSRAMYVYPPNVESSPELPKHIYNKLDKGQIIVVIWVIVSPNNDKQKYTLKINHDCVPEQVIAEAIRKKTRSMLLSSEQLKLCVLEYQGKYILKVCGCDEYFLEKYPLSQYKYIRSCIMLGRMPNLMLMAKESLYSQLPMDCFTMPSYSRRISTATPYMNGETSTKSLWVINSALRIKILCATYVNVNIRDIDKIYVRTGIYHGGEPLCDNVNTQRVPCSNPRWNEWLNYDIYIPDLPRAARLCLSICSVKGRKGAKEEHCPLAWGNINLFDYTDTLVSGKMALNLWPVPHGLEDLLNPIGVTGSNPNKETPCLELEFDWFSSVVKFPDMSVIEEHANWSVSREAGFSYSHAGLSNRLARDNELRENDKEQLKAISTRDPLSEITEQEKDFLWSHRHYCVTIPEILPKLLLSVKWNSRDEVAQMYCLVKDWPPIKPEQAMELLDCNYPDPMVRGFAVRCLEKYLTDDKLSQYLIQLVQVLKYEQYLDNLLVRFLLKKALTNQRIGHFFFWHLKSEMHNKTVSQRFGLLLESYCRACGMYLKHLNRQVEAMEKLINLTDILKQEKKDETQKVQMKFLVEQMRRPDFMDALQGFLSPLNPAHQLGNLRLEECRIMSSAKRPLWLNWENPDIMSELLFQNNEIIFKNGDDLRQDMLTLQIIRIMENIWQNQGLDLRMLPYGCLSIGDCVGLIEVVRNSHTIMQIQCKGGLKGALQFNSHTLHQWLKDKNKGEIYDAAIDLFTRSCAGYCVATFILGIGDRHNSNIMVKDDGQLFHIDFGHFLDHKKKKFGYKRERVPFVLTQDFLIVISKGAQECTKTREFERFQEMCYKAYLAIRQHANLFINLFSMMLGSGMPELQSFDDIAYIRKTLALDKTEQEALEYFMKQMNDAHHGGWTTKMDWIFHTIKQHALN
T1 sequence (P27986 whole entry partner): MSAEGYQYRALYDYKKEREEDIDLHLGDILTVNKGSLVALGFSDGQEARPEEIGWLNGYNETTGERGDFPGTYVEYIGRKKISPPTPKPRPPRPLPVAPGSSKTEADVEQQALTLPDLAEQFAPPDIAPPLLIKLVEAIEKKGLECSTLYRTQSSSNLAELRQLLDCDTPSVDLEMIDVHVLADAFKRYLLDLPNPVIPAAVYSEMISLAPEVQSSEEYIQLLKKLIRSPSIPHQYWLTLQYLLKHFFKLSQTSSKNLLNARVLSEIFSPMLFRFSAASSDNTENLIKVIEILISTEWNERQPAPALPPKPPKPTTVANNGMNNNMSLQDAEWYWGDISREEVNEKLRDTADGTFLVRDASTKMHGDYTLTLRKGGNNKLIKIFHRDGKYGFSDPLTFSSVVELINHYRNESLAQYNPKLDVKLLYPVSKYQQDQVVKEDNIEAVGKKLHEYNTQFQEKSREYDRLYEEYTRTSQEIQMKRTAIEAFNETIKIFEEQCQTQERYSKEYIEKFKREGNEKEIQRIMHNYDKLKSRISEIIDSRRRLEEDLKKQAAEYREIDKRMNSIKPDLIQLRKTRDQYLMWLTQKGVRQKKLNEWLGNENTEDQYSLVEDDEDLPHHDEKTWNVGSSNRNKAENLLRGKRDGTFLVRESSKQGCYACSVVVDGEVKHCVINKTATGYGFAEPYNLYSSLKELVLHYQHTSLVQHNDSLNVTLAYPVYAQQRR

Row | SMILES | inhibition at 0.1 µM [1] [%] | inhibition at 10 µM [2] [%] | IC50 [3] [nM] | IC50 [4] [nM] | IC50 [5] [nM] | IC50 [6] [nM] | IC50 [7] [nM] | IC50 [8] [nM] | IC50 [9] [nM] | IC50 [10] [nM] | IC50 [11] [nM] | IC50 [12] [nM] | IC50 [13] [nM] | IC50 [14] [nM] | IC50 [15] [nM]
1 | CC(C)(C#N)c1ccc(-n2c(=O)n(S(=O)(=O)c3ccccc3C#N)c3cnc4ccc(Br)cc4c32)cc1 [Example 2, 2-(8-Bromo-1-(4-(2-cyanopropan-2-yl)phenyl)-2-oxo-1H-imidazo[4,5-c]quinolin-3 (2H)-ylsulfonyl)benzonitrile] | 10 to 50 | 10 to 50 | ≤ 1000 | ≤ 1000 | ≤ 1000 | 1000 to 3000 | > 3000 | 1000 to 10000 | ≤ 1000 | – | – | – | – | – | –
2 | CC(C)(C#N)c1ccc(-n2c(=O)n(S(=O)(=O)c3ccc(F)cc3F)c3cnc4ccc(Br)cc4c32)cc1 [Example 17, 2-(4-(8-Bromo-3-(2,4-difluorophenylsulfonyl)-2-oxo-2,3-dihydro-1H-imidazo[4,5-c]quinolin-1-yl)phenyl)-2-methylpropanenitrile] | 10 to 50 | > 50 | 1000 to 3000 | 1000 to 3000 | ≤ 1000 | – | – | 1000 to 10000 | – | 1000 to 3000 | 1000 to 3000 | 1000 to 3000 | 1000 to 3000 | – | –
3 | CC(C)(C#N)c1ccc(-n2c(=O)n(S(C)(=O)=O)c3cnc4ccc(Br)cc4c32)cc1 [Example 18, 2-(4-(8-Bromo-3-(methylsulfonyl)-2-oxo-2,3-dihydro-1H-imidazo[4,5-c]quinolin-1-yl)phenyl)-2-methylpropanenitrile] | 10 to 50 | – | ≤ 1000 | 1000 to 3000 | ≤ 1000 | – | – | 1000 to 10000 | – | 1000 to 3000 | 1000 to 3000 | 1000 to 3000 | 1000 to 3000 | – | –
4 | Cc1cccc(S(=O)(=O)n2c(=O)n(-c3ccc(C(C)(C)C#N)cc3)c3c4cc(Cl)ccc4ncc32)c1 [Example 19, 2-(4-(8-Chloro-2-oxo-3-(m-tolylsulfonyl)-2,3-dihydro-1H-imidazo[4,5-c]quinolin-1-yl)phenyl)-2-methylpropanenitrile] | – | – | 1000 to 3000 | 1000 to 3000 | – | > 3000 | – | – | – | ≤ 1000 | > 3000 | – | > 3000 | – | –
5 | CC(=O)c1ccc(S(=O)(=O)n2c(=O)n(-c3ccc(C(C)(C)C#N)cc3)c3c4cc(C)ccc4ncc32)cc1 [Example 25, 2-(4-(3-(4-Acetylphenylsulfonyl)-8-methyl-2-oxo-2,3-dihydro-1H-imidazo[4,5-c]quinolin-1-yl)phenyl)-2-methylpropanenitrile] | – | – | > 3000 | > 3000 | > 3000 | – | – | > 30000 | – | > 3000 | – | – | – | > 3000 | > 3000
